This passage reports inhibition results from PMC7614683, “A small molecule PI3Kα activator for cardioprotection and neuroregeneration” (Nature, 2023).

Common to all, as to assay: SelectScreen Z-LYTE kinase activity assay (SI Table 6)
Holding throughout (format): biochemical

The target in assay [1] is protein kinases of the Z-LYTE panel (Homo sapiens, UniProt P12931). In outline:
(§1)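 Percent effect values derive from SelectScreen Adapta, Lantha and Z-LYTE assays in which 1938 was present at 1 μM, spanning 133 protein kinases and 7 lipid kinases.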

Assay [2] addresses protein kinases of the Z-LYTE panel (Homo sapiens, UniProt P00533, L858R/T790M). In outline: as §1
In assay [3] the target is protein kinases of the Z-LYTE panel (Homo sapiens, UniProt P06241). In outline: as §1
In assay [4] the target is protein kinases of the Z-LYTE panel (Homo sapiens, UniProt P78527). The method in brief: as §1
Assay [5] has as its target protein kinases of the Z-LYTE panel (Homo sapiens, UniProt P51451). In outline:
as §1

For assay [6], the target named is protein kinases of the Z-LYTE panel (Homo sapiens, UniProt P07332). In outline:
as §1

Assay [7] concerns the target T1, protein kinases of the Z-LYTE panel (Homo sapiens, UniProt P30530).
T1 sequence (P30530 26-894): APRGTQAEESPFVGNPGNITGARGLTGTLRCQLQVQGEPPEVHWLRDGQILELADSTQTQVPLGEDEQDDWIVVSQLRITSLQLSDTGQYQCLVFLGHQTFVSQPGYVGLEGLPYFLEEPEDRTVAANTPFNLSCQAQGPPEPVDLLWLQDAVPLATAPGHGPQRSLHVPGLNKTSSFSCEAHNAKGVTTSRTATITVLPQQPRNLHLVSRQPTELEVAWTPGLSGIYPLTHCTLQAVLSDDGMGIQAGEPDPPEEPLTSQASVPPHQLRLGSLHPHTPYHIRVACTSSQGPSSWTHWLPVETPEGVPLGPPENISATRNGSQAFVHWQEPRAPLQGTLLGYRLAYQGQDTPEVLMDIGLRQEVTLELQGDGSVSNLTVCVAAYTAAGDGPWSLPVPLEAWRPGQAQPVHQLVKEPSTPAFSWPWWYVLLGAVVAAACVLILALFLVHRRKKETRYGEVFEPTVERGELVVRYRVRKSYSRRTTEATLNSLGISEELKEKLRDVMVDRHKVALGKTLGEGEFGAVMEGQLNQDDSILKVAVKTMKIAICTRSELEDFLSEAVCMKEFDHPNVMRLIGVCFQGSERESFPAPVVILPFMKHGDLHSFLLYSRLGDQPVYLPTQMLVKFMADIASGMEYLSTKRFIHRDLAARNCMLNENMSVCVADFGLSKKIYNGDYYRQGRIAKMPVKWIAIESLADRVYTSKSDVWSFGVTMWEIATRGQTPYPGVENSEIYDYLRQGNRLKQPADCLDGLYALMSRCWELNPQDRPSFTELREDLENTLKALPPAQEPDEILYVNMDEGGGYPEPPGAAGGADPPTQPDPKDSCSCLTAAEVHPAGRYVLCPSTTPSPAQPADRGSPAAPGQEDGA
In outline:
as §1

Assay [8] concerns the target protein kinases of the Z-LYTE panel (Homo sapiens, UniProt Q13177). The method in brief:
as §1

Where two headings read alike, the source gives them in different places.

In general, inhibition refers to how much of the control response was suppressed.

Sequence of protein kinases of the Z-LYTE panel (Homo sapiens, UniProt P00533, L858R/T790M) (P00533 25-1210 T790M/L858R): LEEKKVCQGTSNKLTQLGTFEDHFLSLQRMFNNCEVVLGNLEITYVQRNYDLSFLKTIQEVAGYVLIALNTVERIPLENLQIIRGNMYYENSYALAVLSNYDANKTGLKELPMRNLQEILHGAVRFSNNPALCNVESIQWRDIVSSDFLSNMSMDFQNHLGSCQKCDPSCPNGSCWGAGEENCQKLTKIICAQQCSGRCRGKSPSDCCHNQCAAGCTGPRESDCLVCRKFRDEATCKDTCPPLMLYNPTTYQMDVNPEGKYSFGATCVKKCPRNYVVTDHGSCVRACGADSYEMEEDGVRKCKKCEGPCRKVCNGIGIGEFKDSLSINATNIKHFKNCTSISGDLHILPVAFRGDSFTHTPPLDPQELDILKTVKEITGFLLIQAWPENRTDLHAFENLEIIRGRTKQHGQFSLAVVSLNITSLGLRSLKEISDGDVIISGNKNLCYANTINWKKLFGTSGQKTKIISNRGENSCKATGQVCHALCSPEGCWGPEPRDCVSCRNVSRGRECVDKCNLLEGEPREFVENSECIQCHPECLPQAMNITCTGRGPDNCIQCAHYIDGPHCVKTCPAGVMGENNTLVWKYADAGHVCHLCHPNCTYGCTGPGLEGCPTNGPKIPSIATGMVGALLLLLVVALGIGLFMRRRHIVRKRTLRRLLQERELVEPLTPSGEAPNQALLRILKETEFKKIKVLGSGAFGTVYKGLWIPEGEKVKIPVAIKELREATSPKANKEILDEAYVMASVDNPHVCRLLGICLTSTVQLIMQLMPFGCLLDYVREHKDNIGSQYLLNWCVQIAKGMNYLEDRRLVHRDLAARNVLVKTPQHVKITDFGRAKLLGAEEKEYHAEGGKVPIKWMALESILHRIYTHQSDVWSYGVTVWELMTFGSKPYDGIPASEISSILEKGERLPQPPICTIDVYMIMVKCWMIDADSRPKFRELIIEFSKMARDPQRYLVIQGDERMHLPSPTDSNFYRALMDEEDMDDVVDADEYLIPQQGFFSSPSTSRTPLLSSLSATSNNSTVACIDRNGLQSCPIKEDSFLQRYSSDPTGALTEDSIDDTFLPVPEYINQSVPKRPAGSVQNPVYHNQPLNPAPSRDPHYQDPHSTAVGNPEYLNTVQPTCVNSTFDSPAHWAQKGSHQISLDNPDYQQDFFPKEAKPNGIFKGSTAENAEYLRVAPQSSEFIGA
Sequence of protein kinases of the Z-LYTE panel (Homo sapiens, UniProt Q13177) (Q13177 whole entry): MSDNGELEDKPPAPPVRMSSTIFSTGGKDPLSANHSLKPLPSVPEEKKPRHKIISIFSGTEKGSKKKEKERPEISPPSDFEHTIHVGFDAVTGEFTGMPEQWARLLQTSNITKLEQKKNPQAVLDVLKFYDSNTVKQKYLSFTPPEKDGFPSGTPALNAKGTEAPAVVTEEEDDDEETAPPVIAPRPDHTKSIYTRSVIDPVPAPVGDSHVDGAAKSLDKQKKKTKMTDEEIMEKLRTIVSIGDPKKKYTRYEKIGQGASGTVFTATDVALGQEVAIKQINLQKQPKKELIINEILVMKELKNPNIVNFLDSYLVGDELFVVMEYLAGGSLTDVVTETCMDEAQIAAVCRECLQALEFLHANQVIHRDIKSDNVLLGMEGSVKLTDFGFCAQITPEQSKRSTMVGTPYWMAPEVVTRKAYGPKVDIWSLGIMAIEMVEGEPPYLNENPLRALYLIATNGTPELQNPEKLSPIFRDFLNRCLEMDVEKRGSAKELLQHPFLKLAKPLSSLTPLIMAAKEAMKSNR
Sequence of protein kinases of the Z-LYTE panel (Homo sapiens, UniProt P07332) (P07332 whole entry): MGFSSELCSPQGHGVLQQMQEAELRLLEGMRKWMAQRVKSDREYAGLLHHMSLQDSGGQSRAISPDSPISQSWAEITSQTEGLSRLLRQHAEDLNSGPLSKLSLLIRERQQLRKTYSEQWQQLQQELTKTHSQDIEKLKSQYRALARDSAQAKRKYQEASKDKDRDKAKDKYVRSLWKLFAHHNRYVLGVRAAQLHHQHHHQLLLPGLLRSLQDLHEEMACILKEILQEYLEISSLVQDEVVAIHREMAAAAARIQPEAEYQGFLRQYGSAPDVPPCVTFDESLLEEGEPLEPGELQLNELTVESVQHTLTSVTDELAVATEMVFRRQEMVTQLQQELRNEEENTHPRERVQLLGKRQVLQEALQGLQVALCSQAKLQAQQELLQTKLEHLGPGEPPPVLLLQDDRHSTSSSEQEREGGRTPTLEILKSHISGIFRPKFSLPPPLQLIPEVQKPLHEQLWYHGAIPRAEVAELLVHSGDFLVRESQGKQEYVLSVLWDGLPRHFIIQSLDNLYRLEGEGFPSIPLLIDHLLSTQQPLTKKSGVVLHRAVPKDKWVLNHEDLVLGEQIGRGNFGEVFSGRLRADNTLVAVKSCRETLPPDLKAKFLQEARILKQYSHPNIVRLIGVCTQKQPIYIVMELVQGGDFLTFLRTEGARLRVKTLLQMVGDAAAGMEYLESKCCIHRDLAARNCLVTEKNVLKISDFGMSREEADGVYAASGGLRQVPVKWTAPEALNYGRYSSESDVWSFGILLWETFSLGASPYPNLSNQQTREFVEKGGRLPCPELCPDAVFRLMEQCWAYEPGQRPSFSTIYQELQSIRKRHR
Sequence of protein kinases of the Z-LYTE panel (Homo sapiens, UniProt P12931) (P12931 whole entry): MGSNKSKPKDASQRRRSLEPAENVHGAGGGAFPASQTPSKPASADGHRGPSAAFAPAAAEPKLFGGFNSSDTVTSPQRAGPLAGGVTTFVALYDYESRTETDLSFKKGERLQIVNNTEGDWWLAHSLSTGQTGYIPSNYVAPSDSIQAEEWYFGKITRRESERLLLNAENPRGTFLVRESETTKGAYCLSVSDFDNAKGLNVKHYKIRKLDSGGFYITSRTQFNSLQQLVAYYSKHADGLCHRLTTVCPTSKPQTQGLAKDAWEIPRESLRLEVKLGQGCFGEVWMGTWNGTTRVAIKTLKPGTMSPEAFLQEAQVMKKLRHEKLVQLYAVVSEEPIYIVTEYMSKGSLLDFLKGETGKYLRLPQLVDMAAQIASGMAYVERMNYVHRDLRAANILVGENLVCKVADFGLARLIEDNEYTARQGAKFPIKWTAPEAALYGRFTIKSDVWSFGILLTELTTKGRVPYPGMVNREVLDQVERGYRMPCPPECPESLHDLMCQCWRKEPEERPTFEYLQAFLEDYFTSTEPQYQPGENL
Sequence of protein kinases of the Z-LYTE panel (Homo sapiens, UniProt P06241) (P06241 whole entry): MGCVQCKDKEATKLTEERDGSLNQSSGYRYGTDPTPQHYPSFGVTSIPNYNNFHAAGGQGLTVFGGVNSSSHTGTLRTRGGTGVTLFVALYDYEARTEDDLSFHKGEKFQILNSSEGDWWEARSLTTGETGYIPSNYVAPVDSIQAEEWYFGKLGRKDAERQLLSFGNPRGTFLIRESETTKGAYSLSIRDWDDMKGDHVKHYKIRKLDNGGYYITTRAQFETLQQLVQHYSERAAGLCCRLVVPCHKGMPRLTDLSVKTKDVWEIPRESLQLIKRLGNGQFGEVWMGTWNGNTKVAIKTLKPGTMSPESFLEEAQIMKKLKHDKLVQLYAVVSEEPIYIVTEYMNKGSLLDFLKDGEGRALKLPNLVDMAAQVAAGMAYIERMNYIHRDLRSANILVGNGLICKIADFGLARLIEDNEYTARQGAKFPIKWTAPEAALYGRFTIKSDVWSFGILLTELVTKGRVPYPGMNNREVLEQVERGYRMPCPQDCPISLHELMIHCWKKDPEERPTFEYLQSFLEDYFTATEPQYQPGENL
Sequence of protein kinases of the Z-LYTE panel (Homo sapiens, UniProt P51451) (P51451 whole entry): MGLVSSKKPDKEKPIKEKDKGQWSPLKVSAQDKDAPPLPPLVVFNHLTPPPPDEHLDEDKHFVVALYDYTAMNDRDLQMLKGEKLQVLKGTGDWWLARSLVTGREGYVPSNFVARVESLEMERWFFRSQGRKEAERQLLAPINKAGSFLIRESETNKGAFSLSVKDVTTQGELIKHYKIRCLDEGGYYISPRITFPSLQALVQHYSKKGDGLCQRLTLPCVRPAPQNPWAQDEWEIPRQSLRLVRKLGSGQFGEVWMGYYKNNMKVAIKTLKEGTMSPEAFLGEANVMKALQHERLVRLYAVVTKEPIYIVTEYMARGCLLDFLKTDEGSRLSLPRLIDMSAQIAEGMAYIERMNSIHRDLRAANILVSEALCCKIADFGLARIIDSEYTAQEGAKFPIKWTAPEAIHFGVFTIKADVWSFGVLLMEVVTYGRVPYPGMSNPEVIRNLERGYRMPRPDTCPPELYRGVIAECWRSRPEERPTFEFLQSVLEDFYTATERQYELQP

For the molecule `CCN1CCN(c2ccc(Nc3cc(Nc4cccc5c4N(C(C)=O)CC5)ccn3)cc2)CC1` [Compound 1938], the inhibition at 1 µM is 28% in assay [1] (read-out: % Inhibition Point 1); 29% in assay [1] (read-out: % Inhibition Point 2); 29% in assay [1] (read-out: % Inhibition mean); 12% in assay [2] (read-out: % Inhibition Point 1); 12% in assay [2] (read-out: % Inhibition Point 2); 12% in assay [2] (read-out: % Inhibition mean). Also, the inhibition at 1 µM worked out at 6% in assay [3] (read-out: % Inhibition Point 1); 7% in assay [3] (read-out: % Inhibition Point 2); 6.46% in assay [3] (read-out: % Inhibition mean); 9.47% in assay [4] (read-out: % Inhibition Point 1); 10% in assay [4] (read-out: % Inhibition Point 2); 10% in assay [4] (read-out: % Inhibition mean). In addition, the inhibition at 1 µM in assay [5] (read-out: % Inhibition Point 1) was 16%; in assay [5] (read-out: % Inhibition Point 2), 6.35%; in assay [5] (read-out: % Inhibition mean), 11%; in assay [6] (read-out: % Inhibition Point 1) it was 7%; in assay [6] (read-out: % Inhibition Point 2), 8%; in assay [6] (read-out: % Inhibition mean), 7.57%. For the same molecule, the inhibition at 1 µM in assay [7] (read-out: % Inhibition Point 1) was found to be 7%; in assay [7] (read-out: % Inhibition Point 2), 8%; in assay [7] (read-out: % Inhibition mean) it was 7.4%; in assay [8] (read-out: % Inhibition Point 1) it was 5%; in assay [8] (read-out: % Inhibition Point 2), 4.68%; in assay [8] (read-out: % Inhibition mean), 5%.
